We go through one compound from paper PMC11873939, “Target Identification with Live-Cell Photoaffinity Labeling and Mechanism of Action Elucidation of ARN23765, a Highly Potent CFTR Corrector” (Journal of Medicinal Chemistry, 2025).

Test [1] addresses T1, F508del-CFTR double mutants (K68I, N71I, R74A, F81A, A198Y, W361A, S364F) (Homo sapiens, UniProt P13569, DEL508-508/S364F).
T1 construct: CFTR identification in pull-down studies and analysis of full-length CFTR in protein maturation assays; expressed in transfected cells; host or cells: HEK293 (transient, pCDNA3.1 constructs, JetPEI)
The test can be described thus: Protein maturation assay (WB) of F508del-CFTR double mutants in transfected HEK293 cells. To be noted: F508del/S364F-CFTR; HEK293, 10 nM, 24 h. Type of test: cell-based. As for the experimental part: (§1) To confirm in cells the above-predicted binding site for ARN23765, we introduced the investigated single-site mutations into the F508del-CFTR coding sequence. The rescue of double mutant proteins (F508del + new mutation) by ARN23765 was assessed with WB analysis of protein maturation and evaluation of channel activity (FLIPR assay)[40] in transfected HEK293 cells. Since correctors 3151 (type II)[16] and VX-445 (type III)[18] have been reported to bind to different CFTR sites, we used these compounds as controls. As expected, ARN23765-induced maturation of F508del-CFTR was not affected by the N71I substitution. […] Indeed, the corrector was no longer able to promote protein maturation (Figure 9A and S8A). […] The results of protein maturation analysis were mostly confirmed by functional data (Figure 9B and S8B), in which the channel activity of double-mutated proteins was evaluated in terms of the change in cell membrane potential change (FLIPR assay).
(§2) HEK293 cells were plated in 24-wells at around 80% of confluence and transfected with constructs coding for F508del-CFTR or mutants using JetPEI reagent (101000053, Polyplus Technology) following the manufacturer’s instructions. After 24 h, the correctors were added for a further 24 h. Correctors were used at the following concentrations: ARN23765 (10 nM), VX-445 (3 μM), and 3151 (10 μM). For binding site analysis experiments, the cells were kept either at 37 °C (Figure S8) or moved to 30 °C (Figure 9) during incubation with the selected correctors. VX-445 and corrector 3151 were mixed together as a control for maximal protein correction. DMSO (0.2%) was added to nontreated controls. After treatment, cells were lysed in RIPA buffer [50 mM tris-HCl pH 8, 150 mM NaCl, 1% NP40, 0.5% sodium deoxycolate, 0.1% SDS, 2.0 mM EDTA] and lysates were analyzed with WB, as described in the supplementary methods of the Supporting Information. […]
(§3) Site-directed mutagenesis
(§4) Desired mutations were introduced using the QuikChange II XL site-directed mutagenesis kit (200522,
(§5) Agilent Technologies) according to the manufacturer’s instructions. F508del-CFTR pCDNA3.1 was used
(§6) as a template for the synthesis of mutated constructs K68I/F508del-CFTR, N71I/F508del-CFTR,
(§7) S364F/F508del-CFTR. The introduction of the mutation and the whole CFTR sequence were checked by
(§8) Sanger sequencing. Mutants R1070W/F508del-CFTR and R170G-
(§9) CFTR were produced as previously described.4

Test [2] deals with T2, F508del-CFTR double mutants (K68I, N71I, R74A, F81A, A198Y, W361A, S364F) (Homo sapiens, UniProt P13569, DEL508-508/N71I).
T2 construct: CFTR identification in pull-down studies and analysis of full-length CFTR in protein maturation assays; expressed in transfected cells; host or cells: HEK293 (transient, pCDNA3.1 constructs, JetPEI)
Described as above. To be noted: F508del/N71I-CFTR; HEK293, 10 nM, 24 h. Type of test: cell-based. Here is the method:
as §1, §2, §3, §4, §5, §6, §7, §8, §9

The target in test [3] is T3, F508del-CFTR double mutants (K68I, N71I, R74A, F81A, A198Y, W361A, S364F) (Homo sapiens, UniProt P13569, DEL508-508/W361A).
T3 construct: CFTR identification in pull-down studies and analysis of full-length CFTR in protein maturation assays; expressed in transfected cells; host or cells: HEK293 (transient, pCDNA3.1 constructs, JetPEI)
The description is as above. Format: cell-based. To be noted: F508del/W361A-CFTR; HEK293, 10 nM, 24 h. Here is the method:
as §1, §2, §3, §4, §5, §6, §7, §8, §9

The target in test [4] is T4, F508del-CFTR double mutants (K68I, N71I, R74A, F81A, A198Y, W361A, S364F) (Homo sapiens, UniProt P13569, A198Y/DEL508-508).
T4 construct: CFTR identification in pull-down studies and analysis of full-length CFTR in protein maturation assays; expressed in transfected cells; host or cells: HEK293 (transient, pCDNA3.1 constructs, JetPEI)
Described as above. Type of test: cell-based. To be noted: F508del/A198Y-CFTR; HEK293, 10 nM, 24 h. Here is the method:
as §1, §2, §3, §4, §5, §6, §7, §8, §9

Test [5] addresses T5, F508del-CFTR double mutants (K68I, N71I, R74A, F81A, A198Y, W361A, S364F) (Homo sapiens, UniProt P13569, DEL508-508/K68I).
T5 construct: CFTR identification in pull-down studies and analysis of full-length CFTR in protein maturation assays; expressed in transfected cells; host or cells: HEK293 (transient, pCDNA3.1 constructs, JetPEI)
Described as above. To be noted: F508del/K68I-CFTR; HEK293, 10 nM, 24 h. Type of test: cell-based. As for the experimental part:
as §1, §2, §3, §4, §5, §6, §7, §8, §9

The target in test [6] is T6, F508del-CFTR double mutants (K68I, N71I, R74A, F81A, A198Y, W361A, S364F) (Homo sapiens, UniProt P13569, DEL508-508/F81A).
T6 construct: CFTR identification in pull-down studies and analysis of full-length CFTR in protein maturation assays; expressed in transfected cells; host or cells: HEK293 (transient, pCDNA3.1 constructs, JetPEI)
The description is as above. Type of test: cell-based. To be noted: F508del/F81A-CFTR; HEK293, 10 nM, 24 h. As for the experimental part: as §1, §2, §3, §4, §5, §6, §7, §8, §9

For test [7], the target named is T7, F508del-CFTR double mutants (K68I, N71I, R74A, F81A, A198Y, W361A, S364F) (Homo sapiens, UniProt P13569, DEL508-508/R74A).
T7 construct: CFTR identification in pull-down studies and analysis of full-length CFTR in protein maturation assays; expressed in transfected cells; host or cells: HEK293 (transient, pCDNA3.1 constructs, JetPEI)
The test is described as above. Type of test: cell-based. To be noted: F508del/R74A-CFTR; HEK293, 10 nM, 24 h. As for the experimental part: as §1, §2, §3, §4, §5, §6, §7, §8, §9

Another test addresses T8, F508del-CFTR (Homo sapiens, UniProt P13569, DEL508-508).
T8 construct: expressed in transfected cells
The arrangement: method as in PMID 32128418. To be noted: bronchial epithelial cells from F508del-CFTR CF individuals; cited from earlier work.

T6 sequence (P13569 with tags, fused parts or gaps F81A/DEL508-508): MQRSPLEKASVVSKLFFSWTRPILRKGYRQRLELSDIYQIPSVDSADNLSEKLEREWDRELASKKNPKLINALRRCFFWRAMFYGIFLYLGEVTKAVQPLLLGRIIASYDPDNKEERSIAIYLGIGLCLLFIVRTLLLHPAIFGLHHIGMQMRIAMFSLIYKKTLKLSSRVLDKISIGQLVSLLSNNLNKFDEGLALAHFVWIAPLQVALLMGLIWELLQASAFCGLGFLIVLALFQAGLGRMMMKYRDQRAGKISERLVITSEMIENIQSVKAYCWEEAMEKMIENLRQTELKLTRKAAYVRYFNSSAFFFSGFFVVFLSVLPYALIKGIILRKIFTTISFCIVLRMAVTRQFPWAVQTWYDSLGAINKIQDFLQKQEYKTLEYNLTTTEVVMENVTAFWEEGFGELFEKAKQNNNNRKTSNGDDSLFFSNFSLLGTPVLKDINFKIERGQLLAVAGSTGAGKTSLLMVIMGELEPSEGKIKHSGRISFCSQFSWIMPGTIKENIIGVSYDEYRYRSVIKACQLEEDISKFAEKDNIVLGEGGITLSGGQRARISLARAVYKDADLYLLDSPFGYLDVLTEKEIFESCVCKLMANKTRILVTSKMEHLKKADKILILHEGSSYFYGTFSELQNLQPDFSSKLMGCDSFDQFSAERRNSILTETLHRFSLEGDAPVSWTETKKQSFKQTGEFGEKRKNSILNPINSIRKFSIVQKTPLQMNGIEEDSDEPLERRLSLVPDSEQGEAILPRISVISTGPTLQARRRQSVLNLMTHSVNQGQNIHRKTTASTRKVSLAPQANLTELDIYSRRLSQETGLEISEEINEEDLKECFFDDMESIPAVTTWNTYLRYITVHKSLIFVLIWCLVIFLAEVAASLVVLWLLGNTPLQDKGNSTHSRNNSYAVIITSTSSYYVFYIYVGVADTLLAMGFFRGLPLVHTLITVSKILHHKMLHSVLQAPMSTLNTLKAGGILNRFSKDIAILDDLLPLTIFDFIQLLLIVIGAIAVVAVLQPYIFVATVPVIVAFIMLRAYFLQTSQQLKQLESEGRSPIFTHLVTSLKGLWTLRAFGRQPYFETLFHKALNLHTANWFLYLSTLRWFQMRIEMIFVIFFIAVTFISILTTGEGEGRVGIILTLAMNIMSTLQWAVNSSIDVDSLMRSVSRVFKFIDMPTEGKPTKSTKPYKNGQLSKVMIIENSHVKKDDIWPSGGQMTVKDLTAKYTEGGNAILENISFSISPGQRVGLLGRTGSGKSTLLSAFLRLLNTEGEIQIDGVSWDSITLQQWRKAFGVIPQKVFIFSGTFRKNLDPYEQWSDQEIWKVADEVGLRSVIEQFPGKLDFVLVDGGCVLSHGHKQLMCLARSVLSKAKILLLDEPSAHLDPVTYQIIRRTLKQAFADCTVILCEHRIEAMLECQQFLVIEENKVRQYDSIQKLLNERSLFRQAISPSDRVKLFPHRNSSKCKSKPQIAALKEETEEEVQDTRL
T5 sequence (P13569 with tags, fused parts or gaps K68I/DEL508-508): as the sequence (P13569 with tags, fused parts or gaps F81A/DEL508-508) above, with K68I, A81F counted along it
T3 sequence (P13569 with tags, fused parts or gaps W361A/DEL508-508): as the sequence (P13569 with tags, fused parts or gaps F81A/DEL508-508) above, with A81F, W361A counted along it
T7 sequence (P13569 with tags, fused parts or gaps R74A/DEL508-508): as the sequence (P13569 with tags, fused parts or gaps F81A/DEL508-508) above, with R74A, A81F counted along it
T1 sequence (P13569 with tags, fused parts or gaps S364F/DEL508-508): as the sequence (P13569 with tags, fused parts or gaps F81A/DEL508-508) above, with A81F, S364F counted along it
T4 sequence (P13569 with tags, fused parts or gaps A198Y/DEL508-508): as the sequence (P13569 with tags, fused parts or gaps F81A/DEL508-508) above, with A81F, A198Y counted along it
T2 sequence (P13569 with tags, fused parts or gaps N71I/DEL508-508): as the sequence (P13569 with tags, fused parts or gaps F81A/DEL508-508) above, with N71I, A81F counted along it
T8 sequence (P13569 with tags, fused parts or gaps DEL508-508): as the sequence (P13569 with tags, fused parts or gaps F81A/DEL508-508) above, with A81F counted along it

Consider `CN(C(=O)c1cccc(-n2nc(C(F)(F)F)c3c2[C@@H](Oc2ccc(C(=O)O)cc2)CCC3)c1)c1ccc2c(c1)OC(F)(F)O2` [ARN23765], for which the “Effect of second mutation on corrector-induced maturation of F508del-CFTR” value in test [1] is “only slightly reduced”; in test [2], “not affected”; in test [3], “markedly reduced or abolished”; in test [4] it was “markedly reduced or abolished”; in test [6], “markedly reduced or abolished”; in test [7] it was “only slightly reduced”. In addition, the “Effect of second mutation on corrector-induced rescue of F508del-CFTR” value in test [5] was “no appreciable change”. Also, at F508del-CFTR, the “Potency in rescuing CFTR function” value was “subnanomolar”.
